Test results as given in paper PMC7838189, “Natural podophyllotoxin analog 4DPG attenuates EMT and colorectal cancer progression via activation of checkpoint kinase 2” (Cell Death Discovery, 2021).

Test system: orthotopic rat colorectal carcinoma
Details: 25 mg/kg thrice a week for 3 weeks
Source text: To examine the antitumor and anti-metastatic efficacy of 4DPG in vivo, we employed a carcinogen-induced orthotopic rat colorectal carcinoma model. […] The schematic representation briefly describes the steps involved in the generation of orthotopic colorectal tumors along with the treatment strategy and further analysis (details in “Materials and methods”). The animals were euthanized at the end of the experiment and evaluated for tumor and metastatic burden (Fig. 4A). […] To validate whether our in vitro observations on mechanistic inhibition of EMT and invasion by 4DPG hold true in vivo, we performed immunohistochemical analysis of the tumor tissues acquired from the saline and 4DPG-treated animal groups.
A Model depicting the procedure adopted for generating the carcinogen-induced orthotopic rat CRC model, treatment strategies of 4DPG, evaluation of tumor burden, and further biochemical analysis. B Representative images of large bowel showing the colorectal tumor growth in saline, 5-FU (25 mg/kg), and 4DPG (25 mg/kg) treated groups of animals. C, D Quantification of tumor volume and number of polyps per rat in above groups of animals. n = 6 rats per group, error bars: mean ± SD; *P < 0.05, **P < 0.01, ***P < 0.001. E Representative images of the lungs dissected from the above groups of animals showing metastatic tumor burden. Orange arrows indicating bumps of secondary tumors over each lobe of lungs. F, G Quantification of a number of macroscopic secondary tumors over the lung tissues and lung weight in the above groups of animals. n = 6 rats per group, error bars, mean ± SD; **P < 0.01, ***P < 0.001. […] Scale bar: 50 µm. I Western blots depicting expression of p-Chk2 (Thr68), Chk2, p53, p-Vimentin (Ser38), and Vimentin in tumor tissues obtained from saline- and 4DPG-treated groups of animals. β-Actin expression was taken as endogenous loading control. J Densitometry analysis of the above western blot bands portraying relative protein expression of the markers presented. n = 3, error bars: mean ± SD; **P < 0.01, ***P < 0.001.
Animal studies were performed following the guidelines approved by Institutional Animal Ethics Committee (IAEC No. 51/02/15) of CSIR-Indian Institute of Integrative Medicine, Jammu, India. The experiment was performed according to our standardized protocol described previously with necessary modifications. Five-weeks-old healthy male Wistar rats (body weight 150–200 g) were maintained in aseptic condition with free access to food and water. Animals were randomized into three groups, with six animals per group. All the rats received intrarectal instillation of 0.5 mL of freshly prepared 0.4% aqueous solution of N-methyl-N-nitrosourea (MNU) thrice a week for 3 weeks, for the orthotopic induction of colorectal tumors. The solution was injected using sterile syringe with attached 8-cm long rubber catheter tube inserted two-thirds into the colon lumen through anal orifice, as described previously. The animals were kept under continuous monitoring, and the body weight was measured once per week. Following 22 weeks after the initiation of MNU administration, treatment regimens were started by administering 5-FU (25 mg/kg), and 4DPG (25 mg/kg) thrice a week for 3 weeks. The control and treatment groups of animals were dosed separately by three independent investigators and the outcomes were assessed by a fourth investigator blind about the dosing process and treatment regimen.

COc1cc([C@@H]2c3cc4c(cc3C[C@H]3COC(=O)[C@@H]32)OCO4)cc(OC)c1O[C@@H]1O[C@H](CO)[C@@H](O)[C@H](O)[C@H]1O [4DPG, 4′-demethyl-deoxypodophyllotoxin glucoside]
lung metastases: strongly prevented the development of lung metastases | drug-related toxicity/adverse effects (until end of experiment): without any drug-related toxicity/adverse effects | average number of polyps (control group 16): 3 | mean tumor volume (saline control 820.6 mm^3): 116.8 mm^3
